Source: patent US20060134119A1, “Drugs containing galectin 9” (priority 2003, published 2006)
Residues, ends and D or L forms follow the SMILES beside them. *: point of attachment. Cbz = O=C(OCc1ccccc1)*; CH2F = FC*

What was measured:
MOLT-4 cells [1] = experiment: Ca2+ influx, Fluo-3 assay by flow cytometry; type: cell-based, human; settings: FIG. 8; for effect on calcium influx induced by Gal-9: 30 mM lactose or sucrose
Method: Cells (approx. 10^6 to 10^7 cells/mL) in the culture medium (10% FCS, RPMI-1640 containing 10 mM HEPES, pH 7.2) were incubated with fluo-3 AM (final concentration 10 μM, Dojindo, Kumamoto, Japan), an intracellular calcium indicator, at 37° C. for 30 min (Sharp, B. M. et al., Proc. Natl. Acad. Sci. USA, 93: 8294 (1996)). Then the cells were washed and resuspended in the culture medium (final concentration, approx. 2×10^5 cells/mL per sample). Intracellular calcium level was measured by flow cytometry. The resting cells were stimulated at 1 min after their fluorescence intensities were measured.
Next, sequential measurement was restarted until different stimuli were applied. In lactose inhibition assay, cells were stimulated in the presence of 30 mM lactose. Sucrose (30 mM) was used as a control (Sano, H. et al., J. Imnunol., 165: 2156 (2000)). A23187 (calcium ionophore, final concentration 5 ng/mL, Wako, Osaka, Japan) was used as a positive control.

MOLT-4 cells [2] = experiment: Inhibition of Gal-9- or other stimulus-induced apoptosis by lactose, caspase and calpain inhibitors; type: cell-based, human; settings: for effect on pro-apoptosis activity by Gal-9: 30 mM lactose or sucrose, FIG. 2; for inhibition of DEX-induced apoptosis / inhibition of C2 ceramide-induced apoptosis / inhibition of TNF-α-induced apoptosis / inhibition of anti-Fas Ab-induced apoptosis: caspase inhibitors; for inhibition of DEX-induced apoptosis / inhibition of Gal-9-induced apoptosis / inhibition of C2 ceramide-induced apoptosis / inhibition of TNF-α-induced apoptosis / inhibition of anti-Fas Ab-induced apoptosis: FIG. 5; for inhibition of Gal-9-induced apoptosis: inhibitor at 10 μM, added 1 hr before Gal-9 stimulation
Method: MOLT-4 (T cell), Jurkat (T cell), BALL-1 (B cell), THP-1 (acute monocytic leukemia derived cell), and HL60 (acute promyelotic leukemia derived cell) cells were obtained from American Type Culture Collection (ATCC). All the cell lines were maintained in an RPMI-1640 medium (Sigma, St. Louis, US) supplemented with 10% FCS in 5% Co2 at 37° C. Lactose (30 mM) was added to the culture medium to inhibit Gal-9 activity. The same concentration of sucrose was used as a control. Cells were incubated with Gal-9 in the presence of Z-VAD-FMK (pan-caspase inhibitor), Z-YVAD-FMK (caspase-1 inhibitor), Z-IETD-FMK (caspase-8 inhibitor), Z-LEHD-FMK (caspase-9 inhibitor), Z-ABVD-FMK (caspase-lo inhibitor), or Z-LLY-FMK (calpain inhibitor) (BioVision, CA, US), at 10 μM, and the participation of caspase or calpain in the Gal-9-induced apoptosis was examined. Z-FA-FMK (BioVision, CA, US) was used as a control (Vu C. C. et al., J. Biol. Chem., 276: 37602 (2001) and Sweeney E. A. et al., FEBs Lett., 425: 61 (1998)). Each inhibitor was added 1 hr before Gal-9 stimulation. The following agents were purchased from suppliers below: DEX (BioVision, CA, US), anti-Fas Ab (clone CH-11, MBL), TNFα (Genzyme, Cambridge, Mass., US), C2 ceramide (SIGMA), and etoposide (Biovision).

MOLT-4 cells [3] = experiment: as above; type: cell-based, human; settings: inhibitor at different concentrations; FIG. 6, FIG. 7
Jurkat T cells = settings: 16 hr incubation with 1 mM galectin-9, PI, FACS
Method: (§1) Cytotoxicities in Jurkat T cells, K-562 leukemic cells, and normal lymphocytes were measured by flow cytometry analysis using PI. That is, PI invades into the damaged target cells when PI is added for the last 15 min of 16 hr incubation with 1 mM galectin-9. Fluorescence generated by PI is measured by FACS. Untreated cells were used as a negative control group, formalin-fixed cells as a 100% dead cell group, and H2O2 (hydrogen peroxide solution)-treated cells as a positive control group, respectively.

K-562 leukemic cells = settings: 16 hr incubation with 1 mM galectin-9, PI, FACS
Method: as §1

normal lymphocytes = settings: Normal Lymphocyte; 16 hr incubation with 1 mM galectin-9; PI, FACS
Method: as §1

CD4+ T cells = experiment: Apoptosis induction in peripheral blood CD4+ T cells, resting or anti-CD3 Ab-activated; type: cell-based, human; settings: galectin (+), 1 μM rGal-9
Method: (§2) To prepare a well plate coated with anti-CD3 Ab, 24 well palates were incubated with TBS solution (pH 8.0) containing 3 μg/mL anti-CD3 Ab (Inmunotech, Marseille, France) per well at 4° C. overnight, and each well was washed with PBS after removing anti-CD3 Ab solution.
(§3) Mononuclear leukocyte fractions were isolated from heparinized blood using HISTOPAQUE (Registered trademark, SIGMA). CD4-Positive Isolation Kit (DYNAL, Oslo, Norway) was used for isolation of CD4+ T cells and Dynabeads M-450 CD8 (Registered trademark, DYNAL, Oslo, Norway) for isolation of CD8+ T cells, respectively, according to the manufacturer's instructions.
(§4) To activate T cells, CD4+ or CD8+ cells at 1×10^6 cells/mL in an RPMI-1640 medium containing 10% FCS were incubated on the plate coated with anti-CD3 Ab for 20 to 24 hr at 37° C. in a 5% CO2 incubator, and incubated with rGal-9 [(His)6-Gal-9(S)] at 37° C. in a 5% CO2 incubator. Then apoptosis assay was conducted as described in (c). That is, cells were incubated with 50 μg/mL PI (SIGMA) at 37° C. for 10 min in the dark. Stained cells were analyzed by flow cytometry (Sandstrom, K. et al., J Immunol Methods, 240: 55 (2000) and Zhang L. et al., Cancer Lett, 142: 129 (1999)).
(§5) Apoptosis assay was also conducted for non-activated (resting) T cells as described above after incubating them with rGal-9 [(His)6-Gal-9(S)] at 37° C. in a 5% Co2 incubator.
(§6) For comparison, galectin-1 and -3 treated cells were analyzed.
(§7) Next, apoptosis induction by Gal-9 in human peripheral blood T cells was examined. T cells were separated into CD4+ and CD8+ T cells followed by incubation in the presence or absence of anti-CD3 Ab. Resting T cells and anti-CD3 Ab-activated T cells were incubated with 1 μM rGal-9.

CD8+ T cells = experiment: Apoptosis induction in peripheral blood CD8+ T cells, resting or anti-CD3 Ab-activated; type: cell-based, human; settings: galectin (+), 1 μM rGal-9
Method: as §2, §3, §4, §5, §6, §7

CD4 T Cell = experiment: Apoptosis induction in non-activated normal CD4 T cells (Table 4); type: cell-based; settings: 1 μM galectin-9, 1 μM galectin-3
Method: (§8) For example, measurements of apoptosis induction in the presence of 1 μM galectin-9 are as shown in Table 4 below (also 1 μM for galectin-3 in Table 4).

CD8 T Cell = experiment: Apoptosis induction in non-activated normal CD8 T cells (Table 4); type: cell-based; settings: 1 μM galectin-9, 1 μM galectin-3
Method: as §8

MM-RU = experiment: Induction of cell aggregation in MM-RU; type: cell-based, human; settings: controls, at the dose of at least 1 μM
Method: Recombinant galectin-9 prepared via gene transfer into E. coli was added to MM-RU exogenously, and the efficacy of galectin-9 was then examined. As a result, galectin-9 induced aggregation of MM-RU at the concentration of 0.1 μM or higher. In addition, the galectin-9 efficacy was concentration-dependent, and significant between 0.3-1.0 μM.

[4] = CD3 (+) cells activated on anti-CD3 Ab-coated plates
[5] = CD3 (−) untreated resting cells

CNc1ccc2oc(C[C@H]3O[C@@]4(CC[C@H]3C)O[C@H]([C@H](C)C(=O)c3ccc[nH]3)[C@H](C)C[C@H]4C)nc2c1C(=O)O [A23187]
calcium influx (MOLT-4 cells [1]; Fluo-3 assay, A23187 final concentration 5 ng/mL): significantly induced

OC[C@H]1O[C@@H](O[C@H]2[C@H](O)[C@@H](O)C(O)O[C@@H]2CO)[C@H](O)[C@@H](O)[C@H]1O (some centres unmarked) [lactose, Lactose]
effect on pro-apoptosis activity by Gal-9 (MOLT-4 cells [2]): almost completely inhibited | effect on calcium influx induced by Gal-9 (MOLT-4 cells [1]): inhibited

COC(=O)C[C@H](NC(=O)[C@H](C)NC(=O)[C@@H](NC(=O)[C@H](Cc1ccc(O)cc1)NC(=O)OCc1ccccc1)C(C)C)C(=O)CF [Z-YVAD-FMK]
inhibition of DEX-induced apoptosis (MOLT-4 cells [2]): inhibited | inhibition of Gal-9-induced apoptosis (MOLT-4 cells [2]): inhibited | inhibition of Gal-9-induced apoptosis, dose dependence (MOLT-4 cells [3]): in a dose-dependent manner

OC[C@H]1O[C@@](CO)(O[C@H]2O[C@H](CO)[C@@H](O)[C@H](O)[C@H]2O)[C@@H](O)[C@@H]1O [sucrose]
effect on pro-apoptosis activity by Gal-9 (MOLT-4 cells [2]): not | effect on calcium influx induced by Gal-9 (MOLT-4 cells [1]): not inhibited

COC(=O)C[C@H](NC(=O)[C@H](C)NC(=O)[C@@H](NC(=O)OCc1ccccc1)C(C)C)C(=O)CF [Z-VAD-FMK] (Cbz-Val-Ala-Asp(OMe)-CH2F)
inhibition of C2 ceramide-induced apoptosis (MOLT-4 cells [2]): inhibition | inhibition of DEX-induced apoptosis (MOLT-4 cells [2]): inhibition | inhibition of TNF-α-induced apoptosis (MOLT-4 cells [2]): inhibition | inhibition of anti-Fas Ab-induced apoptosis (MOLT-4 cells [2]): inhibition | inhibition of Gal-9-induced apoptosis (MOLT-4 cells [2]): almost completely inhibited | inhibition of Gal-9-induced apoptosis, dose dependence (MOLT-4 cells [3]): in a dose-dependent manner

OO [H2O2, hydrogen peroxide solution, reference compound]
cytotoxicity, 16 hours (Jurkat T cells): 97.7 | cytotoxicity, 16 hours (K-562 leukemic cells): 99.2 | cytotoxicity, 16 hours (normal lymphocytes): 96.8

COC(=O)CC[C@H](NC(=O)[C@H](CC(C)C)NC(=O)OCc1ccccc1)C(=O)N[C@@H](Cc1cnc[nH]1)C(=O)N[C@@H](CC(=O)OC)C(=O)CF [Z-LEHD-FMK] (Cbz-LE(OMe)HD(OMe)-CH2F)
inhibition of C2 ceramide-induced apoptosis (MOLT-4 cells [2]): inhibited

COC(=O)CC[C@H](NC(=O)[C@H](C)NC(=O)OCc1ccccc1)C(=O)N[C@H](C(=O)N[C@@H](CC(=O)OC)C(=O)CF)C(C)C [Z-AEVD-FMK] (Cbz-AE(OMe)VD(OMe)-CH2F)
inhibition of TNF-α-induced apoptosis (MOLT-4 cells [2]): inhibited | inhibition of anti-Fas Ab-induced apoptosis (MOLT-4 cells [2]): inhibited

CC[C@H](C)[C@H](NC(=O)OCc1ccccc1)C(=O)N[C@@H](CCC(=O)OC)C(=O)N[C@H](C(=O)N[C@@H](CC(=O)OC)C(=O)CF)[C@@H](C)O [Z-IETD-FMK] (Cbz-IE(OMe)TD(OMe)-CH2F)
inhibition of TNF-α-induced apoptosis (MOLT-4 cells [2]): inhibited | inhibition of anti-Fas Ab-induced apoptosis (MOLT-4 cells [2]): inhibited

CC(C)CC(NC(=O)OCc1ccccc1)C(=O)NC(CC(C)C)C(=O)NC(Cc1ccc(O)cc1)C(=O)CF (stereo not drawn) [Z-LLY-FMK] (Cbz-Leu-Leu-Tyr-CH2F; configuration not given here)
inhibition of Gal-9-induced apoptosis, dose dependence (MOLT-4 cells [3]): in a dose dependent manner

Galectin-3: galectin used for comparison / control
apoptosis induction, CD4 (CD4+ T cells; [4]): 15.7 | apoptosis induction, CD4 (CD4+ T cells; [5]): 9.6 | apoptosis induction, CD8 (CD8+ T cells; [4]): 20.9 | apoptosis induction, CD8 (CD8+ T cells; [5]): 14.7 | apoptosis induction, CD4 T Cell Resting (CD4 T Cell): 10.3 | apoptosis induction, CD8 T Cell Resting (CD8 T Cell): 15.9 | aggregation (MM-RU): No obvious aggregation

Galectin-1: galectin used for comparison / control
apoptosis induction, CD4 (CD4+ T cells; [4]): 13.9 | apoptosis induction, CD4 (CD4+ T cells; [5]): 8.1 | apoptosis induction, CD8 (CD8+ T cells; [4]): 19 | apoptosis induction, CD8 (CD8+ T cells; [5]): 9.6 | aggregation (MM-RU): No obvious aggregation
